# PubChem BioAssay AID652165 (Sanford-Burnham Center for Chemical Genomics, 2013)
# pIC50: −log10 of the molar value. Calls of active or inactive are those of the source.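 How the source made its calls: active means IC50 at or below 20 µM; inactive means the rest.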
# Target: Fatty acid synthase (Homo sapiens) (UniProt P49327)
# Assay: inhibition of human FAS-TE enzyme activity – biochemical, kinetic fluorescence intensity, dose response, SAR follow-up (AID 652165)
# Settings: recombinant FAS-TE, OMFH fluorogenic substrate
# Chain of Fatty acid synthase (Homo sapiens) (P49327 whole entry, looked up): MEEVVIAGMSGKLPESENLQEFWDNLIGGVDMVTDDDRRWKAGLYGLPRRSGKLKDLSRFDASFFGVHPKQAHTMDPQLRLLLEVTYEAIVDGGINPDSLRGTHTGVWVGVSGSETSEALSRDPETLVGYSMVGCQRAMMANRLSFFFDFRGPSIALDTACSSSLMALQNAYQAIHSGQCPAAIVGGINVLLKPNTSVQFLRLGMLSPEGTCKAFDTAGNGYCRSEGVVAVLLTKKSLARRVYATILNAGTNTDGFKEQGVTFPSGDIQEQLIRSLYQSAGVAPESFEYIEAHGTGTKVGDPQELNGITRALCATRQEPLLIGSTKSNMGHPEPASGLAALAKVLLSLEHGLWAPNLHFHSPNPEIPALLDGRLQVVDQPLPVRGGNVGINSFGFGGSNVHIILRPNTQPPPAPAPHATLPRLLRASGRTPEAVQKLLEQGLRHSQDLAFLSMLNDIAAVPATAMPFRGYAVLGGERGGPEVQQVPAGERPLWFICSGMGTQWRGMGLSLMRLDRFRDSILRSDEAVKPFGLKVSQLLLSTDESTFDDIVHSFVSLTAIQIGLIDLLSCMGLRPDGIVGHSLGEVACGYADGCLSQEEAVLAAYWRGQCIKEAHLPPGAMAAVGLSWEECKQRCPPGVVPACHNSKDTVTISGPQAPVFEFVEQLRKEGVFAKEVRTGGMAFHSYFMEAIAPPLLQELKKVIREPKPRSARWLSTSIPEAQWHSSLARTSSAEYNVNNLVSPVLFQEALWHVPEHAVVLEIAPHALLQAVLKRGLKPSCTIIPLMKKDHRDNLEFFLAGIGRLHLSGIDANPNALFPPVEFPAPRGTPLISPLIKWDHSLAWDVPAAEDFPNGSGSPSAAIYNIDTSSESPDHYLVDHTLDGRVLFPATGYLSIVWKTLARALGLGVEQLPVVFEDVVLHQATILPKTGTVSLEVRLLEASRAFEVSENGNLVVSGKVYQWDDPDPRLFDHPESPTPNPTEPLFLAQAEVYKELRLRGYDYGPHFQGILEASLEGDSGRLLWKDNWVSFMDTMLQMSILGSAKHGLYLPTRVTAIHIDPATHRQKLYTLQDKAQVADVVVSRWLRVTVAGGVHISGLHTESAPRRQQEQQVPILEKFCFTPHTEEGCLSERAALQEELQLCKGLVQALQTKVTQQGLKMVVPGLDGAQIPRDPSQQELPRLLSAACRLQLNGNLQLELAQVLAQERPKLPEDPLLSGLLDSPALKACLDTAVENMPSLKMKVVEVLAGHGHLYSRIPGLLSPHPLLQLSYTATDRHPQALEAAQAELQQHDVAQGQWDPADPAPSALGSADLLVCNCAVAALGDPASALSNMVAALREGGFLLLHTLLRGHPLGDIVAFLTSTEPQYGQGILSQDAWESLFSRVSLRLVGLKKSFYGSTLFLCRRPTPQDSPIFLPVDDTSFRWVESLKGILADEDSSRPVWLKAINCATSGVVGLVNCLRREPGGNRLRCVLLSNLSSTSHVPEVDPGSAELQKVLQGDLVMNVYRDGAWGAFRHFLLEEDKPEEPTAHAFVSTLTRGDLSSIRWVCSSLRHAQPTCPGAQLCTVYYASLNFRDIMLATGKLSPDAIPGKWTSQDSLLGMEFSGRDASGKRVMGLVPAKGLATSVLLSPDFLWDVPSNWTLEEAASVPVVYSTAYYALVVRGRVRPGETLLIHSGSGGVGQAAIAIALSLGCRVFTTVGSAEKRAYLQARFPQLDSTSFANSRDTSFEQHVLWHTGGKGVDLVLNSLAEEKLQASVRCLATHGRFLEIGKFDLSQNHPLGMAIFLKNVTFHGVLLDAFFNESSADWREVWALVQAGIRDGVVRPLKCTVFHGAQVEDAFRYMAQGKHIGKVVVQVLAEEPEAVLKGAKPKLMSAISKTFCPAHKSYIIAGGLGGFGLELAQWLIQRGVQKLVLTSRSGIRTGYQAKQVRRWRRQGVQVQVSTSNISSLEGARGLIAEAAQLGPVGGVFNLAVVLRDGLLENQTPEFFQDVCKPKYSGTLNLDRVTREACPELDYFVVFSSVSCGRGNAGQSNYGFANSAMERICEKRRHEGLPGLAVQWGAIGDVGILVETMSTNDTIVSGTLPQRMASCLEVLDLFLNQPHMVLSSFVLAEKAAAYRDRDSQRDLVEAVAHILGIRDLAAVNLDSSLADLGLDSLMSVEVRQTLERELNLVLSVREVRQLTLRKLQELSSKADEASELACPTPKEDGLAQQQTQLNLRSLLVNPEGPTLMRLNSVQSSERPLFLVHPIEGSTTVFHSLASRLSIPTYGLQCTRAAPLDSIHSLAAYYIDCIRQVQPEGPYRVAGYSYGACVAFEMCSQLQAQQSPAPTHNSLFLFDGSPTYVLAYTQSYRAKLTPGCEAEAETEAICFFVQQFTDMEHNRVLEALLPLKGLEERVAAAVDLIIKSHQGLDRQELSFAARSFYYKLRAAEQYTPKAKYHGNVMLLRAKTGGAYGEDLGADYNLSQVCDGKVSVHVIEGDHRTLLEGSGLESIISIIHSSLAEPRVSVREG
Structure (SMILES),pIC50,IC50
O=C(Nc1nc(-c2ccc(S(=O)(=O)N3CCOCC3)cc2)cs1)C1CC1,5.29,
CCCCC(=O)Nc1nc(-c2ccc(S(=O)(=O)N3CCSCC3)cc2)cs1,6.19,
CC1CCN(S(=O)(=O)c2ccc(-c3csc(NC(=O)C(C)C)n3)cc2)CC1,6.19,
CCC(C)C(=O)Nc1nc(-c2ccc(S(=O)(=O)N(CC)CC)cc2)cs1 (centres undefined),6.53,
O=C(Nc1nc(-c2ccc(S(=O)(=O)N3CCCC3)cc2)cs1)C1CCC1,6.46,
CN(C)S(=O)(=O)c1ccc(-c2csc(NC(=O)C3CCCC3)n2)cc1,5.82,
CC(C)C(=O)Nc1nc(-c2ccc(S(=O)(=O)N3CCCC3)cc2)cs1,6.53,
CC(=O)Nc1nc(-c2ccc(S(=O)(=O)N3CCOCC3)cc2)cs1,4.92,
CN(C)S(=O)(=O)c1ccc(-c2csc(NC(=O)C3CCC3)n2)cc1,5.87,
CCN(CC)S(=O)(=O)c1ccc(-c2csc(NC(=O)C3CCCC3)n2)cc1,5.93,
CN(C)S(=O)(=O)c1ccc(-c2csc(NC(=O)C3CC3)n2)cc1,5.89,
CCCCC(=O)Nc1nc(-c2ccc(S(=O)(=O)N3CCOCC3)cc2)cs1,6.26,
CCN(CC)S(=O)(=O)c1ccc(-c2csc(NC(=O)C3CCCCC3)n2)cc1,5.50,
CCC(=O)Nc1nc(-c2ccc(S(=O)(=O)N(CC)CC)cc2)cs1,5.40,
CCC(=O)Nc1nc(-c2ccc(S(=O)(=O)N(C)C)cc2)cs1,5.96,
CCCCC(=O)Nc1nc(-c2cccc(S(=O)(=O)N3CCOCC3)c2)cs1,4.74,
CCC(=O)Nc1nc(-c2ccc(S(=O)(=O)N3CCCC3)cc2)cs1,6.19,
CC1CCN(S(=O)(=O)c2ccc(-c3csc(NC(=O)C4CC4)n3)cc2)CC1,,> 80000 nM (inactive)
CC(C)(C)OC(=O)Nc1nc(-c2ccc(S(=O)(=O)N3CCOCC3)cc2)cs1,,inactive

# More lines, now with the values ahead:
pIC50,IC50,Structure (SMILES)
5.18,,CC(C)CC(=O)Nc1nc(-c2ccc(S(=O)(=O)N3CCOCC3)cc2)cs1
6.18,,O=C(Nc1nc(-c2ccc(S(=O)(=O)N3CCCC3)cc2)cs1)C1CC1
,> 80000 nM (inactive),O=C(Nc1nc(-c2ccc(S(=O)(=O)N3CCOCC3)cc2)cs1)C1CCCCC1
6.02,,CCN(CC)S(=O)(=O)c1ccc(-c2csc(NC(=O)C3CCC3)n2)cc1
6.12,,O=C(Nc1nc(-c2ccc(S(=O)(=O)N3CCCC3)cc2)cs1)C1CCCC1
6.50,,CCN(CC)S(=O)(=O)c1ccc(-c2csc(NC(=O)C(C)C)n2)cc1
5.61,,CCN(CC)S(=O)(=O)c1ccc(-c2csc(NC(=O)C3CC3)n2)cc1
5.46,,O=C(Nc1nc(-c2ccc(S(=O)(=O)N3CCOCC3)cc2)cs1)C1CCC1
6.51,,CCC(CC)C(=O)Nc1nc(-c2ccc(S(=O)(=O)N3CCOCC3)cc2)cs1
6.54,,CCC(C)C(=O)Nc1nc(-c2ccc(S(=O)(=O)N3CCOCC3)cc2)cs1 (centres undefined)
5.38,,CCC(=O)Nc1nc(-c2ccc(S(=O)(=O)N3CCOCC3)cc2)cs1
,> 80000 nM (inactive),CC(=O)Nc1nc(-c2ccc(S(=O)(=O)N3CCSCC3)cc2)cs1
,> 80000 nM (inactive),CCC(=O)Nc1nc(-c2ccc(S(=O)(=O)N3CCC(C)CC3)cc2)cs1
6.25,,CC(C)C(=O)Nc1nc(-c2ccc(S(=O)(=O)N(C)C)cc2)cs1
,> 80000 nM (inactive),O=C(Nc1nc(-c2ccc(S(=O)(=O)N3CCOCC3)cc2)cs1)C1CCCC1
6.06,,CC(C)C(=O)Nc1nc(-c2ccc(S(=O)(=O)N3CCOCC3)cc2)cs1
6.71,,CCCCC(=O)Nc1nc(-c2ccc(S(=O)(=O)N3CCCC3)cc2)cs1
6.27,,CCCCC(=O)Nc1nc(-c2ccc(S(=O)(=O)N3CCC(C)CC3)cc2)cs1
6.77,,CCCCC(=O)Nc1nc(-c2ccc(S(=O)(=O)N(CC)CC)cc2)cs1
,inactive,CCCCC(=O)Nc1nc(-c2ccc(C(=O)N3CCOCC3)cc2)cs1
